Consider five compounds from patent US20030072726A1, “Skin lightening agents” (priority 1999, published 2003).

Values after ≈ are worked out from the molar mass of the structure shown. Where two headings read alike, the source gives them in different places. Some results are limits rather than exact numbers.

One data set concerns B16-F1 cells. Nature of the data set: Melanogenesis inhibition (skin lightening) assay in cultured melanocyte cells, secreted melanin OD405. Also on record: Melanogenesis Inhibition Activity: scale not given here. The format is cell-based. Particulars: for Melanogenesis Inhibition Activity: B16-F1 cells, 96 hours. As to the method: These were conducted using cultured melanocyte cells exposed to dilutions of the best materials, and compared with kojic acid, a brown skin lightener. The degree of melanin production was inversely proportional to the skin lightener activity. Any cytotoxic effect of the test materials is reflected in a decrease in melanin formation. Each 96 well assay plate included a solvent control and a blank control. […] When the cell cultures were 50 to 80% confluent, the growth medium was removed from the flasks and the cultures rinsed with 10 ml of HBSS. 2 ml of trypsin/EDTA solution was added and the flasks were incubated at 37° C.+/−1° C. for 2 to 5 minutes. When the cells started to dislodge, the flask was rapped sharply against the palm of the hand and approximately 5 ml of assay medium added to neutralise the trypsin. The concentration of cells was determined by counting an aliquot of the stock cell suspension in a haemocytometer. A seeding suspension of 5×10^4 cells/ml was prepared in assay medium. One hundred microlitres of the seeding cell suspension was added to the appropriate wells on each 96 well plate. One hundred microlitres of growth medium was added to the outer wells to maintain humidity. The cells were incubated at 37+/−1° C. in a humidified atmosphere containing 5+/−1% CO2 in air for 24 hours. Based on the information available for the test article, eight decreasing doses were selected and used in the assay. […] In the case of the mixture of protocatechuic acid and arbutin, a 1 to 1 w/w mixture of each was used in each assay with the concentration of each in the highest dose assay being 2.5 mg/ml, and then pro rata in the dilutions assayed in the other 7 assays. […] The test article and positive control was tested by treating six wells per dilution of B16-F1 cells seeded approximately 24 hours earlier. Prior to treatment the medium was removed, and 200 μl of the pre-warmed (37 +/−1° C.) test article dilutions, positive control dilutions and solvent control, were added to the appropriate wells. All test article concentrations were dosed into a single outer well (200 μl) of the corresponding plate to serve as a turbidity control. The remaining wells around the edge of the plate, designated as blanks, received 200 μl of assay medium prior to incubation. Following dosing, the plates were incubated at 37+/−1° C. for 96 hours +/−2 hours. After exposure, 150 μl of each treatment solution (containing any secreted melanin) was removed and transferred to the corresponding wells of a new 96 well plate (melanin production plate). Turbidity controls were also transferred. The absorbance of the melanin present in the melanin production plates was measured at 405 nm (OD405) with an Anthos 2010™microplate reader. The mean of the six OD405 values for each concentration of test article and positive control was calculated. The turbidity control values were subtracted to obtain a correct OD405 value. The mean of the six OD405 values for the corresponding negative or solvent control were calculated by subtracting the blank control value. The corrected OD405 values of the test article or positive control was divided by the corrected OD405 value for the negative or solvent control to obtain a melanin production ratio.

Data set [1] can be described thus: Taste, odour and colour of compounds of the invention. The format is physicochemical. Particulars: determined at effective concentrations.
Data set [2] is described as follows: Solubilities of compounds of the invention. Type of data set: physicochemical.
Where [3] appears, read: aqueous buffer, water, pH 7.0, read-out: Solubility Water (pH 7.0).
Setting [4] is: ethanol, organic solvent or mixture, read-out: Solubility Ethanol.
Setting [5] is: oil, oil or lipid, read-out: Solubility Oil.
Where [6] appears, read: ethylene glycol, organic solvent or mixture, read-out: Solubility Ethylene Clycol.

In the case of `O=c1cc(CO)occ1O` [Kojic acid, reference compound], the “Melanogenesis Inhibition Activity” value was 0 in the data set with B16-F1 cells (0.015 mg/ml); 0 with B16-F1 cells (0.05 mg/ml); 0 in the data set on B16-F1 cells (0.15 mg/ml); 2 in the data set with B16-F1 cells (0.5 mg/ml); 57 in the data set on B16-F1 cells (1.5 mg/ml); 170 with B16-F1 cells (5 mg/ml). Also, the “Melanogenesis Inhibition Activity” value in the data set with B16-F1 cells (15 mg/ml) is given as 255.
The solubility is the dissolved amount per volume that the medium holds. With `C=Cc1ccc(O)c(OC)c1` [Vinylguaiacol, 4-Vinyl-2-methoxyphenol], in data set [1], the Taste/Odour entry is on record as “Cloves”. Also, in data set [1], the “Colour (Solution in Ethanol)” value is listed as “Colourless”. Further, the “Melanogenesis Inhibition Activity” value in the data set on B16-F1 cells (0.015 mg/ml) is reported as 3; in the data set on B16-F1 cells (0.05 mg/ml), 6; with B16-F1 cells (0.15 mg/ml) it was 10; in the data set on B16-F1 cells (0.5 mg/ml), 1; with B16-F1 cells (1.5 mg/ml) it was 0; in the data set on B16-F1 cells (5 mg/ml) it was 0. In the data set with B16-F1 cells (15 mg/ml), the “Melanogenesis Inhibition Activity” value is recorded as 0. The solubility in data set [2] (setting [3]) was over 2 mg/mL; in data set [2] (setting [4]) it was over 100 mg/mL; in data set [2] (setting [5]), over 50 mg/mL.
On to `O=C(O)c1ccc(O)c(O)c1` [Protocatechuic acid, 3,4-Dihydroxybenzoic acid], for which the Taste/Odour entry in data set [1] was “None”. The “Colour (Solution in Ethanol)” value in data set [1] is “Colourless”. Moreover, the “Melanogenesis Inhibition Activity” value with B16-F1 cells (0.015 mg/ml) worked out at 0.5; in the data set on B16-F1 cells (0.05 mg/ml), 2; with B16-F1 cells (0.15 mg/ml) it was 1; with B16-F1 cells (0.5 mg/ml), 3; in the data set on B16-F1 cells (1.5 mg/ml), 7; with B16-F1 cells (5 mg/ml), 0. Moreover, the “Melanogenesis Inhibition Activity” value in the data set on B16-F1 cells (15 mg/ml) is given as 0. In addition, in the data set with B16-F1 cells (arbutin used together with protocatechuic acid), the “skin lightening effect when used together with another skin lightening agent” value was “synergistic skin lightening effect”. Moreover, the solubility in data set [2] (setting [3]) was over 300 mg/mL; in data set [2] (setting [4]), over 500 mg/mL; in data set [2] (setting [6]), 250 mg/mL (≈ 1620 mM); in data set [2] (setting [5]), under 0.2 mg/mL.
Take `OC[C@H]1O[C@@H](Oc2ccc(O)cc2)[C@H](O)[C@@H](O)[C@@H]1O` [Arbutin, reference compound]: the “Melanogenesis Inhibition Activity” value in the data set with B16-F1 cells (0.015 mg/ml) amounted to 0; in the data set on B16-F1 cells (0.05 mg/ml) it was 1; in the data set with B16-F1 cells (0.15 mg/ml), 4; in the data set with B16-F1 cells (0.5 mg/ml), 11; in the data set with B16-F1 cells (1.5 mg/ml), 17; in the data set with B16-F1 cells (5 mg/ml), 14. For the same compound, in the data set with B16-F1 cells (15 mg/ml), the “Melanogenesis Inhibition Activity” value amounted to 11.
For the compound `CCc1ccc(O)c(OC)c1` [Ethylguaiacol, 4-Ethyl-2-methoxyphenol], the Taste/Odour entry in data set [1] is listed as “Smoky”. Further, in data set [1], the “Colour (Solution in Ethanol)” value was “Colourless”. In addition, the “Melanogenesis Inhibition Activity” value in the data set with B16-F1 cells (0.015 mg/ml) is 2; in the data set on B16-F1 cells (0.05 mg/ml) it was 8; in the data set on B16-F1 cells (0.15 mg/ml), 14; in the data set with B16-F1 cells (0.5 mg/ml) it was 17; in the data set with B16-F1 cells (1.5 mg/ml) it was 0; in the data set with B16-F1 cells (5 mg/ml), 0. In the data set on B16-F1 cells (15 mg/ml), the “Melanogenesis Inhibition Activity” value is given as 0. The solubility in data set [2] (setting [6]) was 250 mg/mL (≈ 1640 mM).
